From PubChem BioAssay AID248 (DTP/NCI, 2004)
Values joined by “and” are separate entries in the source; they are usually repeats but may differ in a detail not shown here. Equal entries are not always repeated. Toxic doses and inconclusive results are not listed. Rule as the data show it: active = T/C of 150% or more; inactive = T/C below 125%. Peptide text beside a SMILES is read from it. * marks the point of attachment. Cbz = O=C(OCc1ccccc1)*; OtBu = CC(C)(C)O*

Test system: L1210 leukemia ip in BDF1 mice, survival T/C
Experiment: NCI In Vivo Anticancer Drug Screen. Data for tumor model L1210 Leukemia (intraperitoneal) in B6D2F1 (BDF1) mice
Conditions: endpoint: mean survival time, higher = longer survival
Summary of the method: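 Tumor cells were implanted, animals were treated, and survival was followed. The result divides the treated measurement by the vehicle-control measurement.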

[1] = dose: 50.0 mg/kg/injection, schedule: Q01DX009 (ip), vehicle: saline
[2] = dose: 100.0 mg/kg/injection, schedule: Q01DX009 (ip), vehicle: saline
[3] = dose: 100.0 mg/kg/injection, schedule: Q04DX003 (ip), vehicle: saline
[4] = dose: 200.0 mg/kg/injection, schedule: Q01DX009 (ip), vehicle: saline
[5] = dose: 200.0 mg/kg/injection, schedule: Q04DX003 (ip), vehicle: saline
[6] = dose: 400.0 mg/kg/injection, schedule: Q04DX003 (ip), vehicle: saline
[7] = dose: 100.0 mg/kg/injection, schedule: Q04DX003 (ip), vehicle: saline with Tween-80
[8] = dose: 200.0 mg/kg/injection, schedule: Q04DX003 (ip), vehicle: saline with Tween-80
[9] = dose: 400.0 mg/kg/injection, schedule: Q04DX003 (ip), vehicle: saline with Tween-80

Measured: T/C

COc1cc(C(=O)OC(C)CN2CCN(C(=O)c3cc(OC)c(OC)c(OC)c3)CC2)cc(OC)c1OC (stereo not drawn)
inactive: dose: 25.0 mg/kg/injection, schedule: Q01DX009 (ip), vehicle: saline 108 % of control | dose: 25.0 mg/kg/injection, schedule: Q04DX003 (ip), vehicle: saline 98 % of control | [1] 101 % of control | dose: 50.0 mg/kg/injection, schedule: Q04DX003 (ip), vehicle: saline 95 % of control | [2] 104 % of control | [3] 102 % of control | [4] 98 % of control | [5] 102 % of control | [6] 109 % of control

O=C(Nc1ccccc1O)C(O)C(O)C(O)C(O)CO (stereo not drawn)
inactive: [3] 87 % of control | [5] 97 % of control | [6] 91 % of control

S=C1SCN(C(c2ccccc2)c2ccccc2)CN1C(c1ccccc1)c1ccccc1
inactive: [7] 95 % of control | [8] 94 % of control | [9] 96 % of control

C[C@]12CC[C@H]3[C@@H](CC[C@]4(O)C[C@@H](O)CC[C@]34/C=N/O)[C@@]1(O)CC[C@@H]2C1=COC(=O)C1
inactive: dose: 1.87 mg/kg/injection, schedule: Q01DX009 (ip), vehicle: carboxymethylcellulose (CMC) 93 % of control | dose: 3.75 mg/kg/injection, schedule: Q01DX009 (ip), vehicle: carboxymethylcellulose (CMC) 104 % of control | dose: 7.5 mg/kg/injection, schedule: Q01DX009 (ip), vehicle: carboxymethylcellulose (CMC) 106 % of control | dose: 30.0 mg/kg/injection, schedule: Q01DX009 (ip), vehicle: carboxymethylcellulose (CMC) 104 % of control | dose: 60.0 mg/kg/injection, schedule: Q01DX009 (ip), vehicle: carboxymethylcellulose (CMC) 93 % of control

O=C(O)C(=O)Cc1cccc(Cl)c1[N+](=O)[O-]
inactive: dose: 75.0 mg/kg/injection, schedule: Q04DX003 (ip), vehicle: saline 96 % of control | dose: 150.0 mg/kg/injection, schedule: Q04DX003 (ip), vehicle: saline 102 % of control | dose: 300.0 mg/kg/injection, schedule: Q04DX003 (ip), vehicle: saline 98 % of control

CC(C)(C)SCCC(=O)NC1CCCCC1
inactive: [1] 90 % of control | [2] 95 % of control | [3] 106 % of control | [4] 93 % of control | [5] 101 % of control

CC(=O)N1C=C(Br)c2ccccc2C1C1c2ccccc2C(Br)=CN1C(C)=O (stereo not drawn)
inactive: [7] 91 % of control | [8] 87 % of control | [9] 91 % of control

Cc1ccccc1CN(C)N=O
inactive: dose: 100.0 mg/kg/injection, schedule: Q01DX001 (ip), vehicle: saline 101 % of control | dose: 200.0 mg/kg/injection, schedule: Q01DX001 (ip), vehicle: saline 94 % of control | dose: 400.0 mg/kg/injection, schedule: Q01DX001 (ip), vehicle: saline 91 % of control

COC(=O)C(CCC(=O)OC(C)(C)C)NC(=O)C(NC(=O)OCc1ccccc1)C(C)C (stereo not drawn) (Cbz-Val-Glu(OtBu)-OMe; configuration not given here)
inactive: dose: 100.0 mg/kg/injection, schedule: Q01DX009 (ip), vehicle: saline with Tween-80 98 % of control | [7] 92 % of control | dose: 200.0 mg/kg/injection, schedule: Q01DX009 (ip), vehicle: saline with Tween-80 89 % of control | [8] 95 % of control | dose: 400.0 mg/kg/injection, schedule: Q01DX009 (ip), vehicle: saline with Tween-80 98 % of control | [9] 95 % of control

NC(=O)CCCCc1ccccc1
inactive: dose: 50.0 mg/kg/injection, schedule: Q01DX001 (ip), vehicle: saline with Tween-80 93 % of control | dose: 100.0 mg/kg/injection, schedule: Q01DX001 (ip), vehicle: saline with Tween-80 98 % of control | dose: 200.0 mg/kg/injection, schedule: Q01DX001 (ip), vehicle: saline with Tween-80 90 % of control

CC(=O)NC1CCC(CC2CCCCC2)CC1 (stereo not drawn)
inactive: dose: 100.0 mg/kg/injection, schedule: Q01DX009 (ip), vehicle: Klucel (hydroxypropylcellulose) (HPC) 101 % of control | dose: 100.0 mg/kg/injection, schedule: Q04DX003 (ip), vehicle: Klucel (hydroxypropylcellulose) (HPC) 93 % of control and 102 % of control | dose: 200.0 mg/kg/injection, schedule: Q01DX009 (ip), vehicle: Klucel (hydroxypropylcellulose) (HPC) 116 % of control | dose: 200.0 mg/kg/injection, schedule: Q04DX003 (ip), vehicle: Klucel (hydroxypropylcellulose) (HPC) 103 % of control and 93 % of control | dose: 400.0 mg/kg/injection, schedule: Q04DX003 (ip), vehicle: Klucel (hydroxypropylcellulose) (HPC) 114 % of control and 93 % of control
